# According to ChEMBL document CHEMBL1201862, “PubChem BioAssay data set” (2004):
# Activity calls are given as the source filed them.
# Tests used:
# [1] = viability of PTEN-deleted HCT116 cells – cell-based, HCT116 PTEN knockout, dose response (AID 1047); type: functional;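 note: HCT116 colon tumor cells with PTEN knocked out; cells exposed to compound for 60 hours before readout; potency for loss of cell viability measured by luminescence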
# [2] = viability of HCT116 lacking mutant beta-catenin – cell-based, human colon tumor, dose response (AID 1045); type: functional;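 note: HCT116 colon tumor cells with beta catenin knocked out; cells exposed to compound for 60 hours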
# [3] = DRD fibroblast viability loss – cell-based, non-viral oncogenic, luminescence, dose response (AID 1934); type: functional; conditions: Homo sapiens
# BJ [4] = assay: BJ-TERT-LT-ST fibroblast viability loss – cell-based, RAS-independent, luminescence, dose response (AID 1935); type: functional; conditions: Homo sapiens;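 note: BJ fibroblasts immortalized with TERT plus LT and ST oncogenes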
# BJ [5] = assay: cells; type: functional, cell-based; conditions: Homo sapiens
# BJ [6] = assay: BJ-TERT fibroblast viability loss – cell-based, RAS-independent, luminescence, dose response (AID 1933); type: functional; conditions: Homo sapiens
# [7] = Luminescence Cell-Based Dose Confirmation HTS to Identify Inhibitors of Platelet Dense Granule Release. [Related pubchem assays: 1663 (Primary HTS), 1678 (Summary of Project)]; type: functional
# [8] = molecular target: Luciferin 4-monooxygenase (Photinus pyralis, UniProt P08659); assay: inhibition of purified Photinus pyralis luciferase – biochemical, luminescence, dose response (AID 1891)
# Nonstructural protein 1 = Nonstructural protein 1 (Influenza A virus, UniProt Q194T2); type: functional, Influenza A virus (A/California/07/2009(H1N1))
# Protein RecA = molecular target: T1, Protein RecA (Mycobacterium tuberculosis, UniProt P9WHJ3); assay: Fluorescence Cell-Free Homogeneous Dose Retest to Identify Inhibitors of RecA-Intein Splicing Activity. [Related pubchem assays (depositor defined):AID2097, AID2223, AID489010, AID492950]; type: functional
# T1 sequence (P9WHJ3 whole entry): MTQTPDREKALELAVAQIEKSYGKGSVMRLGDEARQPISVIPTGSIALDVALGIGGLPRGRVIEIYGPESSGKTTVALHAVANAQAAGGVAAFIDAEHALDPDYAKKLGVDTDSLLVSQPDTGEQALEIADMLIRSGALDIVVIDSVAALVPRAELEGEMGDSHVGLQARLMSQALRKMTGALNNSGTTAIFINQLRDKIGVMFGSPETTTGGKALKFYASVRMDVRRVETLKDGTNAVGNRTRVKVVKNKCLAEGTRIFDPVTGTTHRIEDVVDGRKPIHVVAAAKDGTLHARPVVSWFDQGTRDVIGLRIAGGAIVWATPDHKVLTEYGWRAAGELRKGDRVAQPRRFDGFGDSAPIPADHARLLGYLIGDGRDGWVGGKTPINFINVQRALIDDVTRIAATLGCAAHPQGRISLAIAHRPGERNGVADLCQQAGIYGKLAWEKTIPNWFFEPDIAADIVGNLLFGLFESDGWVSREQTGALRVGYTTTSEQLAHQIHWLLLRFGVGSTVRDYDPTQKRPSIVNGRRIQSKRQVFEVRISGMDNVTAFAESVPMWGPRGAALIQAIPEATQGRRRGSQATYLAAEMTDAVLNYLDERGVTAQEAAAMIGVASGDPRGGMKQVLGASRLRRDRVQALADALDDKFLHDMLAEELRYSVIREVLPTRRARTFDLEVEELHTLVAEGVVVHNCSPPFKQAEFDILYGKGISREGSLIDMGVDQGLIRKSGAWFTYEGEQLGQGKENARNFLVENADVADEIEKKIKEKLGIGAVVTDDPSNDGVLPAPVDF
# [9] = molecular target: T2, Replicative DNA helicase DnaB (Mycobacterium tuberculosis, UniProt P9WMR3); assay: DnaB intein splicing inhibitors, dose response, biochemical, cell-free fluorescence (AID 449749); type: functional
# T2 sequence (P9WMR3 whole entry): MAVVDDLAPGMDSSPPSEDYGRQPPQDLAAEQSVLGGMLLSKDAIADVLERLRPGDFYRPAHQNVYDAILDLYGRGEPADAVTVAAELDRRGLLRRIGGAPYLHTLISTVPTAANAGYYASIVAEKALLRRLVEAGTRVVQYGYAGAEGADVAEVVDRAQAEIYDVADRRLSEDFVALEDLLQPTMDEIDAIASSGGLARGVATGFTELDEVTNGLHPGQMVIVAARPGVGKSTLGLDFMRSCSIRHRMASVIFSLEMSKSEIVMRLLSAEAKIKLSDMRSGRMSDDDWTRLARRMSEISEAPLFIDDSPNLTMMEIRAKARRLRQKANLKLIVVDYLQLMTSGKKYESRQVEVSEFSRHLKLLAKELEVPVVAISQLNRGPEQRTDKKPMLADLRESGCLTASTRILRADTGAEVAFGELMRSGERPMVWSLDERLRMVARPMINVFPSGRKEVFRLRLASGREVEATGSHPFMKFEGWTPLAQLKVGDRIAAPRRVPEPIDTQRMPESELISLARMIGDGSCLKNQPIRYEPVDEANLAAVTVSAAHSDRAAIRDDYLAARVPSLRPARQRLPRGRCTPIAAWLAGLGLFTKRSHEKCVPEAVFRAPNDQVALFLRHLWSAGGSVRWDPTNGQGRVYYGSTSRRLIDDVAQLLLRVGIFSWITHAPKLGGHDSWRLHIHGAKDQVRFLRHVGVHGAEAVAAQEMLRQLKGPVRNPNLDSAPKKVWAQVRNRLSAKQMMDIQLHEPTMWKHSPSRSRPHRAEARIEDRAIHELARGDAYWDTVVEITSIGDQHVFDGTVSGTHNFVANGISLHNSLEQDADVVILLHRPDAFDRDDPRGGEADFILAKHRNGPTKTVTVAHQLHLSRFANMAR
# Aminopeptidase N = molecular target: T3, Aminopeptidase N (Plasmodium falciparum FcB1/Columbia, UniProt O96935); assay: malaria alanyl aminopeptidase activity blockers – biochemical, fluorogenic H-Leu-NHMec substrate, 1536-well (AID 1445); set-up: species or system Plasmodium falciparum 3D7, 3D7
# T3 sequence (O96935 whole entry): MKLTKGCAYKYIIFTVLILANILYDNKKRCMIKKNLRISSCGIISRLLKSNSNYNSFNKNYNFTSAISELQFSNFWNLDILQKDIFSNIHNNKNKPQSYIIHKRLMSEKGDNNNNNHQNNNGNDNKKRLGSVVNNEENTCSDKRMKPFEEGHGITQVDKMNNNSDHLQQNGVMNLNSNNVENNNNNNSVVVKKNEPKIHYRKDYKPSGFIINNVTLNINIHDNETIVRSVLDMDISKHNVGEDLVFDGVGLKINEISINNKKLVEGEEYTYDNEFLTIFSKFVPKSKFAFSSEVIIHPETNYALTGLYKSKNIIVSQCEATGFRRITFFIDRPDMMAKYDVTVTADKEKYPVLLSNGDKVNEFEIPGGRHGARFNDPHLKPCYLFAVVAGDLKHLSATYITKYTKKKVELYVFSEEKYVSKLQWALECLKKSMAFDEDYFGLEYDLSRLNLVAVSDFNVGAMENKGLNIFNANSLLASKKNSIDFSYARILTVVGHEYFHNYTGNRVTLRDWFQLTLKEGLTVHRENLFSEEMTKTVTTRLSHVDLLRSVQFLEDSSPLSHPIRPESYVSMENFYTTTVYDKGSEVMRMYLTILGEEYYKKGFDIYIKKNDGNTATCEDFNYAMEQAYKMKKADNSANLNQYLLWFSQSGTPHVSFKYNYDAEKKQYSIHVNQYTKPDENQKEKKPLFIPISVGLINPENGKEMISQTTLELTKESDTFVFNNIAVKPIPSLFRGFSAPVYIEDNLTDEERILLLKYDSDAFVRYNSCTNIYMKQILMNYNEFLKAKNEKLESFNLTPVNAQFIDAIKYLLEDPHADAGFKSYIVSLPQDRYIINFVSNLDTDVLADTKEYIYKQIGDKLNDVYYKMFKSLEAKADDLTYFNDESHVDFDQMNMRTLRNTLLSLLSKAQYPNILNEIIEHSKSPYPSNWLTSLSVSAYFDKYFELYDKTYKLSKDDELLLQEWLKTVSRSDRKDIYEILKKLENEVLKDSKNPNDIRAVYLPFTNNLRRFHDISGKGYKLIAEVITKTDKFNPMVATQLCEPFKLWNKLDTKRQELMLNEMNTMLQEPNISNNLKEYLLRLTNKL
# [10] = NIH-3T3 fibroblast cytotoxicity, dose response, cytotoxicity control, cell-based, fluorescence, Alamar Blue, secondary assay (AID 2327); type: functional;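 note: NIH-3T3 mouse fibroblasts cultured with fluconazole at 8 µg/mL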
# Vero = assay: cells; type: functional; conditions: Chlorocebus sabaeus
# [11] = reduction of Shn3 3'UTR-driven luciferase in osteoblasts – cell-based, Clone20 osteoblasts, firefly luciferase, cherry-picked, dose response (AID 624132); type: functional;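 note: firefly luciferase luminescence from reporter carrying the Shn3 3'UTR in osteoblasts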
# [12] = blockers of HIV-1 envelope-mediated cell-cell fusion – cherry-pick, dose response (AID 652057); type: functional, cell-based
# [13] = P. falciparum Dd2 growth inhibitors, dose response, SYBR Green, cherry-picked samples (AID 1159567); type: functional, cell-based
# Sequence of Luciferin 4-monooxygenase (P08659 whole entry): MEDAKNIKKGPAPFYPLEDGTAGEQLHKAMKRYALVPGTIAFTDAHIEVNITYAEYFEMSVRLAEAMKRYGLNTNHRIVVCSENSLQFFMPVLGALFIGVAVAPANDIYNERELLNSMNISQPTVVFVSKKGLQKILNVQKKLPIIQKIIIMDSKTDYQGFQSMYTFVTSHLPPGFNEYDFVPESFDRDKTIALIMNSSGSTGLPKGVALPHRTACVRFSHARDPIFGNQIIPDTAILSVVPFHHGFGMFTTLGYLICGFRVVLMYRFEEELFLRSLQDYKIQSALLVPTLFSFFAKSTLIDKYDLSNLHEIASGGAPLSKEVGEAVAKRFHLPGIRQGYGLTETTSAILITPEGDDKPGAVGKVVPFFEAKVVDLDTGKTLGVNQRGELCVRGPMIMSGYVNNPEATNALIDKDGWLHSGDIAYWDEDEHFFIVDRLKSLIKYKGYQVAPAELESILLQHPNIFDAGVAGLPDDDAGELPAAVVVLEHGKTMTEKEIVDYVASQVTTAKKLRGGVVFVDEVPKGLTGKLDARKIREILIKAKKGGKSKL
# Sequence of Nonstructural protein 1 (Q194T2 whole entry): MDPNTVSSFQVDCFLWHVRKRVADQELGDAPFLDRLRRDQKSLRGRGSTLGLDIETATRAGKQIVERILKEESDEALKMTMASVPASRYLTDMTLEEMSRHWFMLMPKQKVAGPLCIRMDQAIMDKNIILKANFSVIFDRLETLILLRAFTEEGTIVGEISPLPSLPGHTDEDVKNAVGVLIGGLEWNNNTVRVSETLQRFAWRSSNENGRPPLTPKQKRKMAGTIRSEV
compound,measurement,setting,value
CC1CCCCN1S(=O)(=O)c1ccc(C(=O)Nc2ccccc2-c2nc3ccccc3[nH]2)cc1 (centres undefined),EC50,[1],17 µM (active)
same,EC50,[2],25.5 µM (active)
CCCc1nnc(NC(=O)CCC(=O)N2CCN(Cc3ccc(OC)c(F)c3)CC2)s1,EC50,[3],> 150 µM (not active)
same,EC50,BJ [4],> 150 µM (not active)
same,EC50,BJ [5],> 150 µM (inconclusive)
same,EC50,BJ [6],25.9 µM (active)
Cc1ccc2nc(NC(=O)CN3C(=O)NC4(CCCC4)C3=O)sc2c1,EC50,[7],> 112 µM (not active)
same,EC50,[8],80 µM (active)
Cc1cc(N(C)N)nc(NC(=O)NS(=O)(=O)c2ccccc2Cl)n1,IC50,Nonstructural protein 1,5.96 µM (active)
COc1cc(/C=C2\C(=O)N(c3ccc(NC(C)=O)cc3)N=C2c2ccccc2)ccc1O,EC50,Protein RecA,> 380 µM (inconclusive)
same,AC50,[9],> 380 µM (inactive)
CC(=O)Nc1cccc(NC(=O)C2CCCN2C(=O)Nc2ccc(Cl)cc2)c1 (centres undefined),IC50,Aminopeptidase N,84.1 µM (active)
same,EC50,[10],> 160 µM (inactive)
CC1(C)Cc2c(sc3nc(-c4cccs4)n(N)c(=O)c23)CO1,EC50,[1],16.7 µM (active)
same,EC50,[2],23.9 µM (active)
O=C(/C=C/c1ccc(Cl)cc1Cl)c1cccnc1,EC50,[1],7.26 µM (active)
same,EC50,[2],5.09 µM (active)
same,CC50,Vero,> 25 µM (active)
CC(C)(C)C(=O)Nc1cc(S(=O)(=O)N2CCCCC2)ccc1N1CCCCC1,AC50,[11],23.1 µM (active)
CC(=O)N1N=C(c2c(-c3ccccc3)c3cc(Br)ccc3[nH]c2=O)CC1c1ccco1 (centres undefined),IC50,Aminopeptidase N,58.8 µM (active)
CCOc1ccccc1N1CC(C(=O)Nc2nccs2)CC1=O (centres undefined),EC50,[7],> 112 µM (not active)
same,EC50,[8],> 112 µM (not active)
COc1ccc(C(=O)Nc2ccccc2C(=O)N(Cc2ccco2)C(C(N)=O)C(C)C)cc1 (centres undefined),EC50,[1],6.76 µM (active)
same,EC50,[2],9.3 µM (active)
CCC(C)(C)NC(=O)CN(Cc1ccc2c(c1)OCO2)C(=O)CCC(=O)Nc1ccccn1,IC50,Aminopeptidase N,67 µM (active)
O=C(Nc1ccc(-c2nc3ccccc3o2)cc1)C1CCCO1 (centres undefined),EC50,[7],2.58 µM (active)
same,EC50,[8],2.6 µM (active)
O=C(CNCc1ccccn1)Nc1ccc([N+](=O)[O-])cc1C(=O)Nc1ccccc1F,IC50,Nonstructural protein 1,5.49 µM (active)
COc1cc(C(c2sc3nc(C)nn3c2O)N2CCOCC2)cc(OC)c1OC (centres undefined),EC50,[7],18.6 µM (active)
same,EC50,[8],> 112 µM (not active)
COc1ccccc1C(=O)N1CCN(c2cccc(Cl)c2)CC1,EC50,[3],1.37 µM (active)
same,EC50,BJ [4],0.833 µM (inconclusive)
same,EC50,BJ [5],38.6 µM (inconclusive)
same,EC50,BJ [6],1.79 µM (active)
COc1cc(/C=C/C(=O)c2cccc([N+](=O)[O-])c2)cc(OC)c1OC,EC50,[1],3.46 µM (active)
same,EC50,[2],2.7 µM (active)
COc1cc(OC)c(-c2nnc3n(CCc4ccccc4)c(=O)c4ccccc4n23)cc1OC,EC50,[7],> 112 µM (not active)
same,EC50,[8],> 112 µM (not active)
CCCOc1ccc(/C=N/Nc2ccccc2[N+](=O)[O-])c(O)c1,EC50,[3],10.1 µM (active)
same,EC50,BJ [4],> 150 µM (inconclusive)
same,EC50,BJ [5],12.2 µM (active)
same,EC50,BJ [6],11.3 µM (active)
C[C@H](CO)N1C[C@H](C)[C@H](CN(C)S(=O)(=O)c2ccc(C#N)cc2)Oc2ncc(/C=C/c3ccccc3)cc2C1=O,AC50,[12],7.61 µM (active)
C/C(CC(=O)Nc1cc(C)ccn1)=N\NC(=O)c1cccc(C)c1,EC50,Protein RecA,4.04 µM (active)
same,AC50,[9],9.58 µM (active)
CCCc1cn([C@H]2C[C@@H]3O[C@@H](CO)CC[C@@H]3O[C@@H]2CCc2ccc(-c3ccc(OC)cc3)cc2)nn1,AC50,[13],6.63 µM (active)
COc1cccc(-c2ccc3c(c2)[C@H]2[C@H](CCN2C(=O)C2CCCCC2)[C@@H](CO)N3)c1,AC50,[13],4.95 µM (active)
O=C1Nc2ccccc2Nc2ncccc21,EC50,[7],> 112 µM (not active)
same,EC50,[8],> 112 µM (not active)
